Reference: publication PMC11676667, “Pharmacokinetics of Oral Cannabinoid Δ8-Tetrahydrocannabivarin and Its Main Metabolites in Healthy Participants” (Pharmaceuticals, 2024)
Where two headings read alike, the source gives them in different places.

Experiment: Plasma pharmacokinetics after single oral dose of Δ8-THCV in MCT oil (LC-MS/MS, non-compartmental analysis)
Format: in vivo, human
Settings: for concentration at 0.5 h / concentration at 1 h / concentration at 2 h / concentration at 4 h / concentration at 6 h / concentration at 8 h / AUC(0-t) / Cmax / MRT / Tmax: human; for concentration at 0.5 h / concentration at 1 h / concentration at 2 h / concentration at 4 h / concentration at 6 h / concentration at 8 h: oral; for AUC(0-t) / Cmax / MRT / Tmax: po; for MRT: read-out: MRT (mean residence time)
Description: The study was a two-phase, dose-ranging, placebo-controlled trial in 21 healthy participants to assess the safety, tolerability, PK, and PD of an oral formulation of Δ8-THCV. A detailed description of the study was published elsewhere. The study product was a medium-chain triglyceride (MCT) oil oral formulation of Δ8-THCV at a concentration of 50 mg/mL. […] MCT oil was used as placebo.
Twenty-one participants were enrolled in the clinical study and plasma samples from 15 participants were sent to our laboratory for pharmacokinetic evaluation. Of these, 3 participants were enrolled in Phase 1, an unblinded, placebo-controlled, single ascending dose design and 12 were enrolled in Phase 2, a double-blind, randomized, placebo-controlled, within-participant crossover design. At each study session, participants received one of the following oral doses: placebo, 12.5 mg, 25 mg, 50 mg, 100 mg, and 200 mg of the aforementioned Δ8-THCV formulation in MCT. Study visits were separated by a washout period of a minimum of one week and maximum of 28 days. Participants entered the research facility the night before the session and received the study product in the morning after a standardized high-fat, high-calorie breakfast. PK blood samples included in this analysis were collected prior to dosing and 0.5, 1, 2, 4, 6, and 8 h after dose. Immediately following collection into K2EDTA tubes, blood samples were placed on wet ice, centrifuged, and plasma was immediately frozen at −80 °C until shipment to the bioanalytical laboratory (iC42 Clinical Research and Development, University of Colorado, Aurora, CO, USA) on dry ice.
Plasma samples were analyzed using a validated high-performance liquid chromatography–tandem mass spectrometry (LC-MS/MS) assay. The assay included Δ8-THCV and its main metabolites 11-OH-Δ8-THCV and Δ8-THCV-COOH, Δ9-THCV and its main metabolite Δ9-THCV-COOH, and Δ9-THC and Δ8-THC as well as their main metabolites (Figure 3). The complete list of analyzed compounds and a summary of the key performance parameters of the assay are presented in Appendix A and Table A1 and Table A2. […] For the PK analysis, concentrations below the lower limit of quantification were set to 0 ng/mL. PK parameters were calculated using non-compartmental analysis (Phoenix WinNonlin version 8.4., Certara, Princeton, NJ, USA). Statistical analysis was carried out using GraphPad Prism (version 10, Boston, MA, USA).

[1] = plasma, 100 mg, 100 mg Δ8-THCV dose, Median (IQ Range)
[2] = plasma, 100 mg, 100 mg Δ8-THCV dose, Mean (SD, %CV)
[3] = plasma, 200 mg, 200 mg Δ8-THCV dose, Mean (SD, %CV)
[4] = plasma, 200 mg, 200 mg Δ8-THCV dose, Median (IQ Range)
[5] = plasma, 12.5 mg, 12.5 mg single oral Δ8-THCV in MCT oil, Mean (±SD)
[6] = plasma, 12.5 mg, 12.5 mg single oral Δ8-THCV in MCT oil, Median (Range)
[7] = plasma, 25 mg, 25 mg single oral Δ8-THCV in MCT oil, Mean (±SD)
[8] = plasma, 25 mg, 25 mg single oral Δ8-THCV in MCT oil, Median (Range)
[9] = plasma, 50 mg, 50 mg single oral Δ8-THCV in MCT oil, Mean (±SD)
[10] = plasma, 50 mg, 50 mg single oral Δ8-THCV in MCT oil, Median (Range)
[11] = plasma, 100 mg, 100 mg single oral Δ8-THCV in MCT oil, Mean (±SD)
[12] = plasma, 100 mg, 100 mg single oral Δ8-THCV in MCT oil, Median (Range)
[13] = plasma, 200 mg, 200 mg single oral Δ8-THCV in MCT oil, Mean (±SD)
[14] = plasma, 200 mg, 200 mg single oral Δ8-THCV in MCT oil, Median (Range)

For `CCCc1cc(O)c2c(c1)OC(C)(C)[C@@H]1CC=C(C(=O)O)C[C@@H]21` [Δ8-THCV-COOH, 11-nor-9-carboxy-Δ8-THCV], which concentration at 0.5 h [1] is on record?
The concentration at 0.5 h was 1.7 ng/mL.

What about the concentration at 1 h [2] of the same molecule?
The concentration at 1 h was 202 ng/mL.

And the concentration at 1 h [1]?
The concentration at 1 h was 79.5 ng/mL.

What about the concentration at 2 h [2] of the same molecule?
Its concentration at 2 h is 306 ng/mL.

What about the concentration at 2 h [1] of the same molecule?
The concentration at 2 h was 275 ng/mL.

And the concentration at 4 h [2]?
Its concentration at 4 h is 556 ng/mL.

What about the concentration at 4 h [1] of the same molecule?
The concentration at 4 h was 547 ng/mL.

What about the concentration at 6 h [2] of the same molecule?
Its concentration at 6 h is 512 ng/mL.

And the concentration at 6 h [1]?
The concentration at 6 h was 497 ng/mL.

And the concentration at 8 h [2]?
Its concentration at 8 h is 319 ng/mL.

And the concentration at 8 h [1]?
Its concentration at 8 h is 304 ng/mL.

What about the concentration at 0.5 h [3] of the same molecule?
Its concentration at 0.5 h is 5.6 ng/mL.

What about the concentration at 0.5 h [4] of the same molecule?
The concentration at 0.5 h was 0 ng/mL.

What about the concentration at 1 h [3] of the same molecule?
Its concentration at 1 h is 158 ng/mL.

What about the concentration at 1 h [4] of the same molecule?
Its concentration at 1 h is 108 ng/mL.

And the concentration at 2 h [3]?
The concentration at 2 h was 653 ng/mL.

What about the concentration at 2 h [4] of the same molecule?
Its concentration at 2 h is 319 ng/mL.

What about the concentration at 4 h [3] of the same molecule?
The concentration at 4 h was 1300 ng/mL.

What about the concentration at 4 h [4] of the same molecule?
Its concentration at 4 h is 1110 ng/mL.

And the concentration at 6 h [3]?
Its concentration at 6 h is 1170 ng/mL.

And the concentration at 6 h [4]?
Its concentration at 6 h is 1020 ng/mL.

And the concentration at 8 h [3]?
The concentration at 8 h was 917 ng/mL.

What about the concentration at 8 h [4] of the same molecule?
Its concentration at 8 h is 855 ng/mL.

And the AUC(0-t) [5]?
Its AUC(0-t) is 398 ng·h/mL.

And the Cmax [5]?
The Cmax was 99 ng/mL.

What about the AUC(0-t) [6] of the same molecule?
The AUC(0-t) was 331 ng·h/mL.

And the Cmax [6]?
The Cmax was 101 ng/mL.

What about the MRT (plasma, 12.5 mg, 12.5 mg single oral Δ8-THCV in MCT oil, plasma, Mean (±SD)) of the same molecule?
The MRT was 4.9 h.

And the Tmax (plasma, 12.5 mg, 12.5 mg single oral Δ8-THCV in MCT oil, plasma, Mean (±SD), read-out: tmax)?
The Tmax was 4.9 h.

And the MRT (plasma, 12.5 mg, 12.5 mg single oral Δ8-THCV in MCT oil, plasma, Median (Range))?
The MRT was 4.9 h.

What about the Tmax (plasma, 12.5 mg, 12.5 mg single oral Δ8-THCV in MCT oil, plasma, Median (Range), read-out: tmax) of the same molecule?
The Tmax was 4 h.

And the AUC(0-t) [7]?
The AUC(0-t) was 642 ng·h/mL.

And the Cmax [7]?
The Cmax was 151 ng/mL.

And the AUC(0-t) [8]?
Its AUC(0-t) is 574 ng·h/mL.

And the Cmax [8]?
Its Cmax is 116 ng/mL.

What about the MRT (plasma, 25 mg, 25 mg single oral Δ8-THCV in MCT oil, plasma, Mean (±SD)) of the same molecule?
Its MRT is 4.8 h.

And the Tmax (plasma, 25 mg, 25 mg single oral Δ8-THCV in MCT oil, plasma, Mean (±SD), read-out: tmax)?
Its Tmax is 4.6 h.

And the MRT (plasma, 25 mg, 25 mg single oral Δ8-THCV in MCT oil, plasma, Median (Range))?
The MRT was 4.6 h.

And the Tmax (plasma, 25 mg, 25 mg single oral Δ8-THCV in MCT oil, plasma, Median (Range), read-out: tmax)?
Its Tmax is 4 h.

What about the AUC(0-t) [9] of the same molecule?
The AUC(0-t) was 1210 ng·h/mL.

What about the Cmax [9] of the same molecule?
The Cmax was 324 ng/mL.

What about the AUC(0-t) [10] of the same molecule?
Its AUC(0-t) is 1090 ng·h/mL.

What about the Cmax [10] of the same molecule?
The Cmax was 275 ng/mL.

What about the MRT (plasma, 50 mg, 50 mg single oral Δ8-THCV in MCT oil, plasma, Mean (±SD)) of the same molecule?
The MRT was 5.3 h.

What about the Tmax (plasma, 50 mg, 50 mg single oral Δ8-THCV in MCT oil, plasma, Mean (±SD), read-out: tmax) of the same molecule?
The Tmax was 5.3 h.

What about the MRT (plasma, 50 mg, 50 mg single oral Δ8-THCV in MCT oil, plasma, Median (Range)) of the same molecule?
The MRT was 5.3 h.

And the Tmax (plasma, 50 mg, 50 mg single oral Δ8-THCV in MCT oil, plasma, Median (Range), read-out: tmax)?
Its Tmax is 6 h.

And the AUC(0-t) [11]?
Its AUC(0-t) is 3070 ng·h/mL.

What about the Cmax [11] of the same molecule?
The Cmax was 756 ng/mL.

What about the AUC(0-t) [12] of the same molecule?
Its AUC(0-t) is 3130 ng·h/mL.

And the Cmax [12]?
Its Cmax is 699 ng/mL.

What about the MRT (plasma, 100 mg, 100 mg single oral Δ8-THCV in MCT oil, plasma, Mean (±SD)) of the same molecule?
Its MRT is 4.8 h.

And the Tmax (plasma, 100 mg, 100 mg single oral Δ8-THCV in MCT oil, plasma, Mean (±SD), read-out: tmax)?
The Tmax was 4.7 h.

And the MRT (plasma, 100 mg, 100 mg single oral Δ8-THCV in MCT oil, plasma, Median (Range))?
The MRT was 4.6 h.

What about the Tmax (plasma, 100 mg, 100 mg single oral Δ8-THCV in MCT oil, plasma, Median (Range), read-out: tmax) of the same molecule?
Its Tmax is 4 h.

What about the AUC(0-t) [13] of the same molecule?
The AUC(0-t) was 6960 ng·h/mL.

What about the Cmax [13] of the same molecule?
Its Cmax is 1740 ng/mL.

What about the AUC(0-t) [14] of the same molecule?
The AUC(0-t) was 6000 ng·h/mL.

What about the Cmax [14] of the same molecule?
Its Cmax is 1900 ng/mL.

What about the MRT (plasma, 200 mg, 200 mg single oral Δ8-THCV in MCT oil, plasma, Mean (±SD)) of the same molecule?
The MRT was 5.1 h.

What about the Tmax (plasma, 200 mg, 200 mg single oral Δ8-THCV in MCT oil, plasma, Mean (±SD), read-out: tmax) of the same molecule?
Its Tmax is 5.3 h.

What about the MRT (plasma, 200 mg, 200 mg single oral Δ8-THCV in MCT oil, plasma, Median (Range)) of the same molecule?
Its MRT is 5.1 h.

And the Tmax (plasma, 200 mg, 200 mg single oral Δ8-THCV in MCT oil, plasma, Median (Range), read-out: tmax)?
The Tmax was 6 h.

What about the Tmax (plasma, across oral Δ8-THCV doses 12.5-200 mg, plasma, read-out: median time-to-maximum concentration (tmax), range across doses) of the same molecule?
Its Tmax is 4.6 to 5.3 h.

What about the “number of positive plasma samples” value (of 504 plasma samples from 15 participants after oral Δ8-THCV) of the same molecule?
The value was 381.

What about the “concentration in representative plasma sample” value (one subject after oral Δ8-THCV in MCT oil, Figure A1) of the same molecule?
The value was 1026 ng/mL.

What about the “median systemic exposure (plasma AUClast) relative to parent compound” value (oral Δ8-THCV) of the same molecule?
The value was 36 fold.

And the “plasma concentration relative to Δ8-THCV, on average at each timepoint” value (oral Δ8-THCV)?
Its value is 10 fold.

And the “increase of median AUClast every two-fold increase in the dose” value (oral Δ8-THCV 12.5-200 mg, plasma)?
The value was 1.7- to 2.9 fold.
